Reference: US7427488B2, “Purified and isolated platelet calcium channel nucleic acids and polypeptides and therapeutic and screening methods using same” (The University of North Carolina at Chapel Hill, priority 2000, dated 2008)

Experiments:
Type in all cases: cell-based, human
[1] = system: platelet VDCC (thrombin-activated platelets); test: Flow cytometric analysis of [Ca2+]i in thrombin-activated platelets; settings: for effect on [Ca2+]i (in words): thrombin-activated platelets
Procedure: The conduction of calcium by the VDCC is measured in vitro by measuring changes in cytoplasmic free (ionized) calcium concentrations. Cytoplasmic calcium concentrations are measured by performing flow cytometric analysis with the calcium indicators fluo-3 and fura red as detailed by Novak & Rabinovitch, 1994. Briefly, platelets in whole blood, platelet rich plasma or biological buffers are incubated with esters of fluo-3 and fura red, and then aspirated into the flow cytometric instrument for measurement of calcium-dependent fluorescent changes. Cytoplasmic calcium concentrations are calculated from the ratio or fluo-3 and fura red relative fluorescence intensities. Experiments are performed with increasing doses of VDCC inhibitors with platelets that are in the resting state and subjected to different concentrations of activation agonists and VDCC antagonists and agonists.
(§1) Human blood was collected in acid-citrate-dextrose (ACD, 85 mM trisodium citrate, 70 mM citric acid, 111 mM dextrose). Platelet rich plasma (PRP) was prepared by centrifugation of anticoagulated blood at 25° C. for 8 minutes at 200×g. Platelets were separated from plasma via gel filtration by applying the PRP to a 2.7×10 cm SEPHAROSE™ CL4B column (Amersham Biosciences Corp., Piscataway, N.J., United States of America) equilibrated with modified Tyrode's buffer (145 mM NaCl, 4 mM KCl, 1 mM MgSO4, 6 mM glucose, 10 mM Na-HEPES). Gel filtered platelets were collected and adjusted to a concentration of about 200×10^6 platelets/ml.
PRP (prepared as above) was incubated with 5 μM Fura 2-AM and 5 μM Fluo 3-AM for 20 minutes at 37° C. […] Thrombin was then added to a final concentration of 0.0167, 0.05, 0.167 or 0.5 units/ml and mean cell fluorescence (MCF) of Fura 2 and Fluo 3 was measured at 1 minute on a FACSCAN™ (BD Biosciences, San Jose, Calif., United States of America) flow cytometer as per Novak & Rabinovitch, 1994. The ratio of fluo 3 to fura 2 MCF was calculated and compared to controls for each experimental condition.

[2] = system: gel-filtered platelets; test: Platelet aggregation (Chrono-log aggregometer); settings: 50 nM nitrendipine or 5 μM Bay K(+); various concentrations of thrombin
Procedure: as §1
Gel-filtered platelets at about 200×10^6/ml were incubated for 2 hours with 1:200 MA3-920, 50 nM nitrendipine, 5 μM Bay K(−), or 5 μM Bay K(+). […] Results were analyzed with the AGGROLINK® software (Chrono-log Corp.).

[3] = system: platelet surface activation markers; test: Cell surface markers of platelet activation, overall statement; settings: Annexin V, PAC1, CD62
Procedure: as §1
(§2) Platelets were stained for cell surface activation markers according to “Flow Cytometric Analysis of Platelets”. Monoclonal Antibodies Source Book. Vol. Section 2.19 (Becton, Dickinson And Co., Franklin Lakes, N.J., United States of America). Briefly, after treatment with agonists or antagonists as above, cells were activated with 0.167 units/ml thrombin (concentration chosen based on [Ca^2+ ]i studies) for 1 minute in the presence of 1 μM CaCl2, and then stained with the combination of CD61 PerCP and Annexin V FITC, or PAC-1 FITC, CD61 PerCP, and CD62 PE for 15 minutes at room temperature in the dark. […] Cells were analyzed on a FACSCAN™ flow cytometer. Mean cell fluorescence (MCF) was compared to control platelets (thrombin only) for each experimental condition. […]

[4] = system: Annexin-V (phosphatidylserine) on platelet surface; test: Cell surface markers of platelet activation by flow cytometry: Annexin V binding; settings: thrombin-activated platelets
Procedure: as §1, §2

[5] = system: PAC1 (activated GPIIb/IIIa) on platelet surface; test: Cell surface markers of platelet activation by flow cytometry: PAC1; settings: thrombin-activated platelets
Procedure: as §1, §2

[6] = system: CD62 (PADGEM; P-selectin) on platelet surface; test: Cell surface markers of platelet activation by flow cytometry: CD62; settings: thrombin-activated platelets
Procedure: as §1, §2

| SMILES | effect on [Ca2+]i (in words) [1] | effect on (the rate of) platelet aggregation (in words) [2] | effect on platelet surface activation markers (in words) [3] | [Ca2+]i ([1]; 5 μM, at one minute, thrombin 0.0167 to 0.5 units/ml (FIG. 8)) | increase in annexin V binding [4] [%] | decrease in PAC1 [5] [%] | decrease in CD62 [6] [%] | reduction (decrease) in annexin V binding / PS exposure [4] [%] |
| --- | --- | --- | --- | --- | --- | --- | --- | --- |
| COC(=O)C1=C(C)NC(C)=C([N+](=O)[O-])[C@@H]1c1ccccc1C(F)(F)F [Bay K (+)] | no significant effect | no significant effect | no significant effect | – | – | – | – | – |
| COC(=O)C1=C(C)NC(C)=C([N+](=O)[O-])[C@H]1c1ccccc1C(F)(F)F [Bay K (−)] | trend towards increased | – | – | increase | 56 | 9 | 4 | – |
| CCOC(=O)C1=C(C)NC(C)=C(C(=O)OC)C1c1cccc([N+](=O)[O-])c1 (stereo not shown) [Nitrendipine, nitrendipine] | – | no effect | – | – | – | – | – | 22 |
